# Measurements from patent US6995272B2, “Crystal form of N-(4-trifluoromethylphenyl)-5-methylisoxazole-4-carboxamide” (Sanofi-Aventis Deutschland GmbH, priority 1997, dated 2006).
# Columns and labels:
# Solubility in water = format: physicochemical; settings: for Solubility in water, result: water at 37° C., sampling 5 hours, UV detection
# From the text: Solubility in Water [table]
# [1] = Stability of the first crystal modification on storage (X-ray diffraction pattern); format: physicochemical
# Method: Stability of the First Crystal Modification Samples of The first crystal modification were prepared as in Example 1 and were stored at various temperatures at atmospheric humidity. After the stated times, samples were taken and an X-ray diffraction pattern was prepared as in Example 1. […] For preparing the calibration curve for the quantitative determination, the reflection at 2θ=8.35° was used for phase 1 and the reflection at 2θ=16.1° was used for phase 2. The ratios of the corresponding peak heights were calculated and were correlated with the contents of phase 2. The limit of the method is 0.3%. The sample after storage for 1 month at 60° C. contains about 76% of the second crystal modification according to this method.
# [2] = system: humans who suffer from rheumatic arthritis; assay: Efficacy in humans who suffer from rheumatic arthritis; format: in vivo; settings: drug comprising an effective content
# [3] = Stability of the first crystal modification on storage (X-ray diffraction pattern); format: physicochemical; settings: +40° C./75% relative humidity
SMILES,"Solubility in water, result (Solubility in water)","water solubility (amount that can be dissolved) (Solubility in water; water, 37° C.) [µg/mL]","Crystal modification ([1]; 1 month, +25° C.)","Crystal modification ([1]; 1 month, +40° C.)","Crystal modification ([1]; 1 month, −15° C.)","Crystal modification ([1]; 3 months, +25° C.)","Crystal modification ([1]; 3 months, +40° C.)","Crystal modification ([1]; 3 months, +60° C.)","Crystal modification ([1]; 3 months, −15° C.)","Crystal modification ([1]; 6 months, +25° C.)","Crystal modification ([1]; 6 months, +40° C.)","Crystal modification ([1]; 6 months, −15° C.)",stability (not converted into the second crystal modification) ([1]; temperature range from −15° C. to +40° C.),"solubility (Solubility in water; water, 37 °C, water, thermodynamic from solid, water, 37° C., read-out: water solubility (amount that can be dissolved)) [µg/mL]",efficacy in comparison with a drug comprising the second crystal modification [2],Crystal modification ([3]; 1 month),Crystal modification ([3]; 3 months),Crystal modification ([3]; 6 months)
"Cc1oncc1C(=O)Nc1ccc(C(F)(F)F)cc1 [second crystal modification, N-(4-trifluoromethylphenyl)-5-methylisoxazole-4-carboxamide]",25 mg dissolved in 1 liter of water at 37 °C,25,–,–,–,–,–,–,–,–,–,–,–,–,–,–,–,–
"Cc1oncc1C(=O)Nc1ccc(C(F)(F)F)cc1 [first crystal modification, N-(4-trifluoromethylphenyl)-5-methylisoxazole-4-carboxamide]",38 mg dissolved in 1 liter of water at 37 °C,–,First,First,First,First,First,Second,First,First,First,First,stable,38,same efficacy,First,First,First
